In ChEMBL document CHEMBL3885881, “DrugMatrix”:

Organism: Rattus norvegicus
Assay: DrugMatrix - Regimen: Daily Repeat
Format: toxicity, organism-based, Sprague-Dawley
Parameters: regimen Daily Repeat, gender Male, age 6-8 weeks
Conditions: in vivo, po, […], route oral GAVAGE; for ABSOLUTE BASOPHIL / ABSOLUTE EOSINOPHIL / ABSOLUTE LYMPHOCYTE / ABSOLUTE MONOCYTE / ABSOLUTE SEGMENTED NEUTROPHIL / BASOPHIL / EOSINOPHIL / ERYTHROCYTE COUNT / HEMATOCRIT / HEMOGLOBIN / LEUKOCYTE COUNT / LYMPHOCYTE / MEAN CORPUSCULAR HEMOGLOBIN / MEAN CORPUSCULAR HEMOGLOBIN CONCENTRATION / MEAN CORPUSCULAR VOLUME / MONOCYTE / NEUTROPHIL / NUCLEATED RED BLOOD CELLS / PLATELET COUNT: tissue Blood; for ALANINE AMINOTRANSFERASE / ALKALINE PHOSPHATASE / ASPARTATE AMINOTRANSFERASE / BLOOD UREA NITROGEN / CARBON DIOXIDE / CHLORIDE / CHOLESTEROL / CREATINE PHOSPHOKINASE / CREATININE / GLUCOSE / LACTATE DEHYDROGENASE / LIPASE / PHOSPHORUS / POTASSIUM / SODIUM / TOTAL BILIRUBIN / TOTAL PROTEIN / URIC ACID: tissue Plasma
[1] = 100 mg/kg, dose level Low, time 7 day
[2] = 700 mg/kg, 72 h, dose level High, time 3 day
[3] = 700 mg/kg, dose level High, time 7 day

Cc1ccc(C)c(OCCCC(C)(C)C(=O)O)c1 [GEMFIBROZIL]
ABSOLUTE BASOPHIL [1]: 0 CELLS/uL | ABSOLUTE EOSINOPHIL [1]: 45.5 CELLS/uL | ABSOLUTE LYMPHOCYTE [1]: 9460.33 CELLS/uL | ABSOLUTE MONOCYTE [1]: 128.67 CELLS/uL | ABSOLUTE SEGMENTED NEUTROPHIL [1]: 965.5 CELLS/uL | BASOPHIL [1]: 0% | EOSINOPHIL [1]: 0.5% | ERYTHROCYTE COUNT [1]: 5.75 x10E6/uL | HEMATOCRIT [1]: 35.7% | HEMOGLOBIN [1]: 13.7 G/DL | LEUKOCYTE COUNT [1]: 10.6 x10E3/uL | LYMPHOCYTE [1]: 89.83% | MEAN CORPUSCULAR HEMOGLOBIN [1]: 23.82 pg | MEAN CORPUSCULAR HEMOGLOBIN CONCENTRATION [1]: 38.42 G/DL | MEAN CORPUSCULAR VOLUME [1]: 62.1 fL | MONOCYTE [1]: 1.17% | NEUTROPHIL [1]: 8.5% | NUCLEATED RED BLOOD CELLS [1]: 0 /100WBC | PLATELET COUNT [1]: 1237.17 x10E3/uL | ALANINE AMINOTRANSFERASE [1]: 75.17 u/L | ALKALINE PHOSPHATASE [1]: 388.67 u/L | ASPARTATE AMINOTRANSFERASE [1]: 80.67 u/L | BLOOD UREA NITROGEN [1]: 15.5 mg/dL | CARBON DIOXIDE [1]: 29.17 mmol/L | CHLORIDE [1]: 103.5 MEQ/L | CHOLESTEROL [1]: 70.33 mg/dL | CREATINE PHOSPHOKINASE [1]: 220 u/L | CREATININE [1]: 0.26 mg/dL | GLUCOSE [1]: 138.5 mg/dL | LACTATE DEHYDROGENASE [1]: 151.33 u/L | LIPASE [1]: 11.5 u/L | PHOSPHORUS [1]: 10.83 mg/dL | POTASSIUM [1]: 6.07 MEQ/L | SODIUM [1]: 145.42 MEQ/L | TOTAL BILIRUBIN [1]: 0.15 mg/dL | TOTAL PROTEIN [1]: 6.55 G/DL | URIC ACID [1]: 0.9 mg/dL | ABSOLUTE BASOPHIL [2]: 0 CELLS/uL | ABSOLUTE EOSINOPHIL [2]: 123.83 CELLS/uL | ABSOLUTE LYMPHOCYTE [2]: 14360.17 CELLS/uL | ABSOLUTE MONOCYTE [2]: 300 CELLS/uL | ABSOLUTE SEGMENTED NEUTROPHIL [2]: 899.33 CELLS/uL | BASOPHIL [2]: 0% | EOSINOPHIL [2]: 0.83% | ERYTHROCYTE COUNT [2]: 5.5 x10E6/uL | HEMATOCRIT [2]: 34.9% | HEMOGLOBIN [2]: 13.82 G/DL | LEUKOCYTE COUNT [2]: 15.68 x10E3/uL | LYMPHOCYTE [2]: 91.67% | MEAN CORPUSCULAR HEMOGLOBIN [2]: 25.13 pg | MEAN CORPUSCULAR HEMOGLOBIN CONCENTRATION [2]: 39.6 G/DL | MEAN CORPUSCULAR VOLUME [2]: 63.5 fL | MONOCYTE [2]: 1.83% | NEUTROPHIL [2]: 5.67% | NUCLEATED RED BLOOD CELLS [2]: 0 /100WBC | PLATELET COUNT [2]: 1197.17 x10E3/uL | ALANINE AMINOTRANSFERASE [2]: 74.67 u/L | ALKALINE PHOSPHATASE [2]: 606 u/L | ASPARTATE AMINOTRANSFERASE [2]: 80.5 u/L | BLOOD UREA NITROGEN [2]: 11.33 mg/dL | CARBON DIOXIDE [2]: 30.67 mmol/L | CHLORIDE [2]: 101.5 MEQ/L | CHOLESTEROL [2]: 61 mg/dL | CREATINE PHOSPHOKINASE [2]: 247.5 u/L | CREATININE [2]: 0.21 mg/dL | GLUCOSE [2]: 143.5 mg/dL | LACTATE DEHYDROGENASE [2]: 254.17 u/L | LIPASE [2]: 9.67 u/L | PHOSPHORUS [2]: 8.5 mg/dL | POTASSIUM [2]: 6.29 MEQ/L | SODIUM [2]: 141.78 MEQ/L | TOTAL BILIRUBIN [2]: 0.32 mg/dL | TOTAL PROTEIN [2]: 5.85 G/DL | URIC ACID [2]: 1.33 mg/dL | ABSOLUTE BASOPHIL [3]: 0 CELLS/uL | ABSOLUTE EOSINOPHIL [3]: 34.5 CELLS/uL | ABSOLUTE LYMPHOCYTE [3]: 11212.67 CELLS/uL | ABSOLUTE MONOCYTE [3]: 304.17 CELLS/uL | ABSOLUTE SEGMENTED NEUTROPHIL [3]: 1732 CELLS/uL | BASOPHIL [3]: 0% | EOSINOPHIL [3]: 0.5% | ERYTHROCYTE COUNT [3]: 5.46 x10E6/uL | HEMATOCRIT [3]: 32.9% | HEMOGLOBIN [3]: 12.75 G/DL | LEUKOCYTE COUNT [3]: 13.28 x10E3/uL | LYMPHOCYTE [3]: 85.5% | MEAN CORPUSCULAR HEMOGLOBIN [3]: 23.43 pg | MEAN CORPUSCULAR HEMOGLOBIN CONCENTRATION [3]: 38.82 G/DL | MEAN CORPUSCULAR VOLUME [3]: 60.37 fL | MONOCYTE [3]: 2.17% | NEUTROPHIL [3]: 11.83% | NUCLEATED RED BLOOD CELLS [3]: 0 /100WBC | PLATELET COUNT [3]: 1336.17 x10E3/uL | ALANINE AMINOTRANSFERASE [3]: 90.83 u/L | ALKALINE PHOSPHATASE [3]: 504.17 u/L | ASPARTATE AMINOTRANSFERASE [3]: 94.83 u/L | BLOOD UREA NITROGEN [3]: 12.17 mg/dL | CARBON DIOXIDE [3]: 31.17 mmol/L | CHLORIDE [3]: 101.17 MEQ/L | CHOLESTEROL [3]: 60.5 mg/dL | CREATINE PHOSPHOKINASE [3]: 391.67 u/L | CREATININE [3]: 0.29 mg/dL | GLUCOSE [3]: 135.67 mg/dL | LACTATE DEHYDROGENASE [3]: 275.5 u/L | LIPASE [3]: 12 u/L | PHOSPHORUS [3]: 9.5 mg/dL | POTASSIUM [3]: 5.98 MEQ/L | SODIUM [3]: 142.85 MEQ/L | TOTAL BILIRUBIN [3]: 0.22 mg/dL | TOTAL PROTEIN [3]: 6.58 G/DL | URIC ACID [3]: 0.87 mg/dL
